{
  "source": "patent US12698507B2",
  "about": "“Methods and compositions for conferring and/or enhancing herbicide tolerance using protoporphyrinogen IX oxidase of various cyanobacteria or variant thereof” (FarmHannong Co., Ltd., priority 2019, dated 2026)",
  "key": {"[1]": {"biological_target": "T1, Thermosynechococcus elongatus PKUAC-SCTE542 protoporphyrinogen IX oxidase CyPPO19, wild type, SEQ ID NO: 1 (MBP fusion) (Thermosynechococcus sichuanensis, UniProt A0A7D6JSC1)", "T1 sequence (A0A7D6JSC1 1-467)": "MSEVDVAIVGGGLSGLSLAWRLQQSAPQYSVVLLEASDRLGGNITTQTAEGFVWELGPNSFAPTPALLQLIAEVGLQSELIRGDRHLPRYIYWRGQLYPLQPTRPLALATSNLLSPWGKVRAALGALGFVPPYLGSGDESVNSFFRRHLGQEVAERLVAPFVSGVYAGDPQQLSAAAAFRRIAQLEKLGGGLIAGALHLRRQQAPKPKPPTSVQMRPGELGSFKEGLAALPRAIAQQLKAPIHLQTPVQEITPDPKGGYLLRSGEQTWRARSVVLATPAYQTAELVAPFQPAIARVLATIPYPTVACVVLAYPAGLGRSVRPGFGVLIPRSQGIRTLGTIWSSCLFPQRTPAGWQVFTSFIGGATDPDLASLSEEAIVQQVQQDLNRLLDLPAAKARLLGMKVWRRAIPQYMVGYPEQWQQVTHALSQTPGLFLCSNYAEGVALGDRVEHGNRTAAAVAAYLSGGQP", "test": "PPO enzyme inhibition assay (IC50 for herbicides), CyPPO19 wild type fused to MBP", "assay_type": "biochemical"}, "[2]": {"test_system": "PPO-deficient BT3 E. coli (ΔPPO) transformed with CyPPO19 variant V165C+F360M (Thermosynechococcus elongatus PKUAC-SCTE542, SEQ ID NO: 1)", "test": "Herbicide tolerance test in E. coli, CyPPO19 V165C+F360M", "assay_type": "cell-based", "settings": "LB agar, 0 to 2,000 μM herbicide, 37° C., 16-20 hours", "text": "(§1) To enhance the PPO-inhibiting herbicide resistance of CyPPO19 and CyPPO18, PPO variant genes of the above example 2 were constructed. They were transformed to BT3 (ΔPPO) strain which is deficient of PPO activity and cultured in LB media with PPO-inhibiting herbicide, thereby examining whether growth of transformed BT3 was not inhibited.\n(§2) BT3 competent cells were transformed with the pET303-CyPPO19 (wild type), pET303-CyPPO18 (wild type) plasmids, and those with a mutation(s) constructed (refer to example 2) via heat shock method, and were cultured in LB agar media containing ampicillin.\n(§3) Single colony transformed with each CyPPO gene was cultured in 3 mL of LB broth (LPSS) containing ampicillin for more than 12 hours, and then was subcultured in LB broth until absorbance (OD600) reached 0.5 to 1. Then, it was diluted with LB broth to OD600=0.5. Again, the diluted solution was serially diluted 4 times by a factor of one tenth. […]\n(§4) Then, 10 μL of each diluted solution of E. coli was dropped on the plate and cultured at 37° C. under dark for 16-20 hours. PPO-inhibiting herbicide resistance was evaluated with the extent of E. coli growth containing each gene was observed.\n(§5) The extent of herbicide resistance was evaluated by the relative growth of variants to that of wild type, and listed in Tables 9 and 10 and FIGS. 3 to 32. […]"}, "[3]": {"biological_target": "Thermosynechococcus vulcanus NIES-2134 protoporphyrinogen IX oxidase CyPPO18 (SEQ ID NO: 3) variant A167I (MBP fusion) (Thermosynechococcus vestitus, UniProt Q8DLV2, A167I)", "sequence (Q8DLV2 entry or part of it A167I)": "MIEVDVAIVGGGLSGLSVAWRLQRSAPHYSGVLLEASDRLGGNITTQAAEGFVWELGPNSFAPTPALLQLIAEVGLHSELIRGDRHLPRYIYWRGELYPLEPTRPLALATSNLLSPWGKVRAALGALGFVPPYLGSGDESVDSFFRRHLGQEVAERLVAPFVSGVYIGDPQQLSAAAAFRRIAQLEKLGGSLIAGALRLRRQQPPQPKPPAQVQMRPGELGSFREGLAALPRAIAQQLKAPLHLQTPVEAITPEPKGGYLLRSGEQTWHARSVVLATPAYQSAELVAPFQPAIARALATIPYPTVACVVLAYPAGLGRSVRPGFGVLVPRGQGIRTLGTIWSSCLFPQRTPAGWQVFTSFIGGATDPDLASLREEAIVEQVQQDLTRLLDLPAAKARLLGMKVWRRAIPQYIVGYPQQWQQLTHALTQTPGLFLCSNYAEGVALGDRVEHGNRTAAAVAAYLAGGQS", "test": "PPO enzyme inhibition assay (IC50 for herbicides), CyPPO18 A167I fused to MBP", "assay_type": "biochemical", "settings": "50 μM protoporphyrinogen IX, pH 7.5, room temperature, 30 min"}, "[4]": {"biological_target": "Thermosynechococcus vulcanus NIES-2134 protoporphyrinogen IX oxidase CyPPO18 (SEQ ID NO: 3) variant A167L (MBP fusion) (Thermosynechococcus vestitus, UniProt Q8DLV2, A167L)", "sequence (Q8DLV2 entry or part of it A167L)": "as the sequence (Q8DLV2 entry or part of it A167I) above, with I167L counted along it", "test": "PPO enzyme inhibition assay (IC50 for herbicides), CyPPO18 A167L fused to MBP", "assay_type": "biochemical", "settings": "50 μM protoporphyrinogen IX, pH 7.5, room temperature, 30 min"}, "[5]": {"biological_target": "Thermosynechococcus elongatus PKUAC-SCTE542 protoporphyrinogen IX oxidase CyPPO19 (SEQ ID NO: 1) variant R89A (MBP fusion) (Thermosynechococcus sichuanensis, UniProt A0A7D6JSC1, R89A)", "sequence (A0A7D6JSC1 entry or part of it R89A)": "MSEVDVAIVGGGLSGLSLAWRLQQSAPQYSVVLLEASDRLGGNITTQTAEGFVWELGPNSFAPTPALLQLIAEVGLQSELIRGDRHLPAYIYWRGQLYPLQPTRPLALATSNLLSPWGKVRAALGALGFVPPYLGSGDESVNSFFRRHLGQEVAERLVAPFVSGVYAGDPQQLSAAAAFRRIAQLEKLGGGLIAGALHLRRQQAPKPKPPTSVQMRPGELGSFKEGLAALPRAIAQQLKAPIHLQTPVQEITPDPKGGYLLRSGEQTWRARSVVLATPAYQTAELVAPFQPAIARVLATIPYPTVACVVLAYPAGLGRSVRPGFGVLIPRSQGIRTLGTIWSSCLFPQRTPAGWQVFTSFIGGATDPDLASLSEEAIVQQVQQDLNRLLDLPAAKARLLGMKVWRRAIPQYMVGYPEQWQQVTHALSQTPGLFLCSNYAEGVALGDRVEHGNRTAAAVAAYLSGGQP", "test": "biochemical"}, "[6]": {"test_system": "PPO-deficient BT3 E. coli (ΔPPO) transformed with CyPPO19 variant V165C+F360I (Thermosynechococcus elongatus PKUAC-SCTE542, SEQ ID NO: 1)", "test": "Herbicide tolerance test in E. coli, CyPPO19 V165C+F360I", "assay_type": "cell-based", "settings": "LB agar, 0 to 2,000 μM herbicide, 37° C., 16-20 hours", "text": "as §1, §2, §3, §4, §5"}, "[7]": {"test_system": "PPO-deficient BT3 E. coli (ΔPPO) transformed with CyPPO18 variant A167L+V305M+F360M (Thermosynechococcus vulcanus NIES-2134, SEQ ID NO: 3)", "assay_type": "cell-based", "parameters": "key to the marks not given beside the values", "settings": "LB agar, 0 to 2,000 μM herbicide, 37° C., 16-20 hours", "text": "as §1, §2, §3, §4, §5"}, "[8]": {"biological_target": "Thermosynechococcus vulcanus NIES-2134 protoporphyrinogen IX oxidase CyPPO18 (SEQ ID NO: 3) variant V165S (MBP fusion) (Thermosynechococcus vestitus, UniProt Q8DLV2, V165S)", "sequence (Q8DLV2 entry or part of it V165S)": "as the sequence (Q8DLV2 entry or part of it A167I) above, with V165S, I167A counted along it", "test": "PPO enzyme inhibition assay (IC50 for herbicides), CyPPO18 V165S fused to MBP", "assay_type": "biochemical", "settings": "50 μM protoporphyrinogen IX, pH 7.5, room temperature, 30 min"}, "[9]": {"test_system": "PPO-deficient BT3 E. coli (ΔPPO) transformed with CyPPO18 variant R89A+F360V (Thermosynechococcus vulcanus NIES-2134, SEQ ID NO: 3)", "assay_type": "cell-based", "settings": "LB agar, 0 to 2,000 μM herbicide, 37° C., 16-20 hours", "text": "as §1, §2, §3, §4, §5"}, "[10]": {"biological_target": "Thermosynechococcus elongatus PKUAC-SCTE542 protoporphyrinogen IX oxidase CyPPO19 (SEQ ID NO: 1) variant V165C (MBP fusion) (Thermosynechococcus sichuanensis, UniProt A0A7D6JSC1, V165C)", "sequence (A0A7D6JSC1 entry or part of it V165C)": "as the sequence (A0A7D6JSC1 entry or part of it R89A) above, with A89R, V165C counted along it", "test": "PPO enzyme inhibition assay (IC50 for herbicides), CyPPO19 V165C fused to MBP", "assay_type": "biochemical"}, "[11]": {"test_system": "PPO-deficient BT3 E. coli (ΔPPO) transformed with CyPPO18 variant L327T+F360M (Thermosynechococcus vulcanus NIES-2134, SEQ ID NO: 3)", "test": "Herbicide tolerance test in E. coli, CyPPO18 L327T+F360M", "assay_type": "cell-based", "parameters": "key to the marks not given beside the values", "settings": "LB agar, 0 to 2,000 μM herbicide, 37° C., 16-20 hours", "text": "as §1, §2, §3, §4, §5"}, "[12]": {"test_system": "PPO-deficient BT3 E. coli (ΔPPO) transformed with CyPPO18 variant V305M+F360I (Thermosynechococcus vulcanus NIES-2134, SEQ ID NO: 3)", "test": "Herbicide tolerance test in E. coli, CyPPO18 V305M+F360I", "assay_type": "cell-based", "parameters": "key to the marks not given beside the values", "settings": "LB agar, 0 to 2,000 μM herbicide, 37° C., 16-20 hours", "text": "as §1, §2, §3, §4, §5"}, "[13]": {"test_system": "PPO-deficient BT3 E. coli (ΔPPO) transformed with CyPPO19 variant R89A+F360M (Thermosynechococcus elongatus PKUAC-SCTE542, SEQ ID NO: 1)", "test": "Herbicide tolerance test in E. coli, CyPPO19 R89A+F360M", "assay_type": "cell-based", "settings": "LB agar, 0 to 2,000 μM herbicide, 37° C., 16-20 hours", "text": "as §1, §2, §3, §4, §5"}},
  "note": "Read-outs that look alike come from different tables or passages of the source.",
  "data": [
    {"smiles": "Cc1nn(-c2cc(CC(Cl)C(=O)O)c(Cl)cc2F)c(=O)n1C(F)F", "note": "(centres unmarked) [Carfentrazone]", "values": [
      {"measurement": "IC50", "setting": "[1]; CyPPO19 WT, 50 μM protoporphyrinogen IX, pH 7.5, room temperature, 30 min", "value": 763, "unit": "nM"},
      {"measurement": "tolerance level (relative growth of variant to wild type)", "setting": "[2]", "value": "+"},
      {"measurement": "IC50", "setting": "[3]", "value": 2600, "unit": "nM"},
      {"measurement": "IC50", "setting": "[4]", "value": 4010, "unit": "nM"},
      {"measurement": "IC50", "setting": "[5]; CyPPO19 R89A, 50 μM protoporphyrinogen IX, pH 7.5, room temperature, 30 min", "value": 857, "unit": "nM"},
      {"measurement": "tolerance level (relative growth of variant to wild type)", "setting": "[6]", "value": "+"},
      {"measurement": "tolerance level (relative growth of variant to wild type)", "setting": "[7]", "value": "++"},
      {"measurement": "IC50", "setting": "[8]", "value": 2230, "unit": "nM"},
      {"measurement": "tolerance level (relative growth of variant to wild type)", "setting": "[9]", "value": "++"},
      {"measurement": "IC50", "setting": "[10]; CyPPO19 V165C, 50 μM protoporphyrinogen IX, pH 7.5, room temperature, 30 min", "value": 3090, "unit": "nM"},
      {"measurement": "tolerance level (relative growth of variant to wild type)", "setting": "[11]", "value": "++"},
      {"measurement": "tolerance level (relative growth of variant to wild type)", "setting": "[12]", "value": "++"},
      {"measurement": "tolerance level (relative growth of variant to wild type)", "setting": "[13]", "value": "+"}
    ]},
    {"smiles": "CCOc1cc(Oc2ccc(C(F)(F)F)cc2Cl)ccc1[N+](=O)[O-]", "note": "[Oxyfluorfen]", "values": [
      {"measurement": "IC50", "setting": "[1]", "value": 570, "unit": "nM"},
      {"measurement": "tolerance level (relative growth of variant to wild type)", "setting": "[2]", "value": "++"},
      {"measurement": "IC50", "setting": "[3]", "value": 2000, "unit": "nM"},
      {"measurement": "IC50", "setting": "[4]", "value": 2810, "unit": "nM"},
      {"measurement": "IC50", "setting": "[5]", "value": 602, "unit": "nM"},
      {"measurement": "tolerance level (relative growth of variant to wild type)", "setting": "[6]", "value": "+"},
      {"measurement": "tolerance level (relative growth of variant to wild type)", "setting": "[7]", "value": "++"},
      {"measurement": "IC50", "setting": "[8]", "value": 1490, "unit": "nM"},
      {"measurement": "tolerance level (relative growth of variant to wild type)", "setting": "[9]", "value": "+"},
      {"measurement": "IC50", "setting": "[10]", "value": 3210, "unit": "nM"},
      {"measurement": "tolerance level (relative growth of variant to wild type)", "setting": "[11]", "value": "++"},
      {"measurement": "tolerance level (relative growth of variant to wild type)", "setting": "[12]", "value": "++"},
      {"measurement": "tolerance level (relative growth of variant to wild type)", "setting": "[13]", "value": "+"}
    ]}
  ]
}
